ChEMBL document CHEMBL6109061, “Discovery of an Ultralong-acting Nondepolarizing Neuromuscular Blocker That Displays Short Onset Time and On-Demand Rapid Reversal by a Biocompatible Antagonist” (J Med Chem, 2025)

Legend:
Rattus norvegicus [1] = assay: Neuromuscular block activity in propofol-induced anesthetized Sprague-Dawley rat model assessed as inhibition of twitch by measuring twitch intensity of quadriceps muscle at 0.032 mg/kg, iv administered as bolus dose by TOF watch monitor analysis relative to control; format: functional
Rattus norvegicus [2] = assay: Neuromuscular block activity in propofol-induced anesthetized Sprague-Dawley rat model assessed as onset time required for twitch reduction at 3 mg/kg, iv; format: functional
[3] = Toxicity in Sprague-Dawley rat assessed as kidney damage at 3 mg/kg, iv measured after 5 hrs by H and E staining based analysis; format: organism-based; conditions: in vivo
Rattus norvegicus [4] = assay: Neuromuscular block activity in propofol-induced anesthetized iv dosed Sprague-Dawley rat model assessed as effective dose; format: functional
H9c2 = assay: Cytotoxicity against rat H9c2 cells assessed as cell viability at 150 microg/ml measured for 24 hrs by SRB assay; format: toxicity, cell-based; conditions: h9c2, 24 h, dose 150 µg/ml
Rattus norvegicus [5] = assay: Neuromuscular block activity in propofol-induced anesthetized Sprague-Dawley rat model assessed as inhibition of twitch by measuring twitch intensity of quadriceps muscle at 1.5 mg/kg, iv administered as bolus dose by TOF watch monitor analysis relative to control; format: functional
[6] = Mutagenicity in Salmonella typhimurium TA98 by AMES test; format: toxicity; conditions: salmonella enterica subsp. enterica serovar typhimurium
[7] = target: Voltage-gated inwardly rectifying potassium channel KCNH2 (Homo sapiens, UniProt Q12809); assay: Inhibition of hERG by Qpatch assay; format: toxicity
[8] = Toxicity in iv dosed ICR mouse assessed as maximum tolerated dose; format: organism-based; conditions: in vivo
Rattus norvegicus [9] = assay: Neuromuscular block activity in propofol-induced anesthetized Sprague-Dawley rat model assessed as onset time required for twitch reduction at 0.04 mg/kg, iv; format: functional
[10] = Hemolytic activity in rat RBC assessed as hemolysis rate at 2048 microg/ml relative to control; format: toxicity, cell-based, Erythrocyte; conditions: red blood cells, at 2048 µg/mL, read-out: Activity
[11] = Toxicity in Sprague-Dawley rat assessed as lung damage at 3 mg/kg, iv measured after 5 hrs by H and E staining based analysis; format: organism-based; conditions: in vivo
Rattus norvegicus [12] = assay: Neuromuscular block activity in propofol-induced anesthetized Sprague-Dawley rat model assessed as recovery time at 0.032 mg/kg, iv; format: functional
Rattus norvegicus [13] = assay: Neuromuscular block activity in propofol-induced anesthetized Sprague-Dawley rat model assessed as onset time required for twitch reduction at 0.032 mg/kg, iv; format: functional
[14] = Mutagenicity in Salmonella typhimurium TA97a by AMES test; format: toxicity; conditions: salmonella enterica subsp. enterica serovar typhimurium
Rattus norvegicus [15] = assay: Neuromuscular block activity in propofol-induced anesthetized Sprague-Dawley rat model assessed as onset time required for twitch reduction at 1.5 mg/kg, iv; format: functional
[16] = Toxicity in Sprague-Dawley rat assessed as spleen damage at 3 mg/kg, iv measured after 5 hrs by H and E staining based analysis; format: organism-based; conditions: in vivo
Rattus norvegicus [17] = assay: Neuromuscular block activity in propofol-induced anesthetized Sprague-Dawley rat model assessed as inhibition of twitch by measuring twitch intensity of quadriceps muscle at 0.2 mg/kg, iv administered as bolus dose by TOF watch monitor analysis relative to control; format: functional
[18] = Solubility of compound in water; format: physicochemical
[19] = Toxicity in Sprague-Dawley rat assessed as liver damage at 3 mg/kg, iv measured after 5 hrs by H and E staining based analysis; format: organism-based; conditions: in vivo
Rattus norvegicus [20] = assay: Neuromuscular block activity in propofol-induced anesthetized Sprague-Dawley rat model assessed as onset time required for twitch reduction at 10 mg/kg, iv; format: functional
Rattus norvegicus [21] = assay: Neuromuscular block activity in propofol-induced anesthetized Sprague-Dawley rat model assessed as time duration of 0 to 25 percent recovery indices at 0.2 mg/kg, iv; format: functional
Rattus norvegicus [22] = assay: Neuromuscular block activity in propofol-induced anesthetized Sprague-Dawley rat model assessed as time duration of 0 to 25 percent recovery indices at 0.04 mg/kg, iv; format: functional
[23] = Mutagenicity in Salmonella typhimurium TA100 by AMES test; format: toxicity; conditions: salmonella enterica subsp. enterica serovar typhimurium
Rattus norvegicus [24] = assay: Neuromuscular block activity in propofol-induced anesthetized Sprague-Dawley rat model assessed as inhibition of twitch by measuring twitch intensity of quadriceps muscle at 10 mg/kg, iv administered as bolus dose by TOF watch monitor analysis relative to control; format: functional
Rattus norvegicus [25] = assay: Neuromuscular block activity in propofol-induced anesthetized Sprague-Dawley rat model assessed as time duration of 0 to 25 percent recovery indices at 0.032 mg/kg, iv; format: functional
[26] = Toxicity in Sprague-Dawley rat assessed as heart damage at 3 mg/kg, iv measured after 5 hrs by H and E staining based analysis; format: organism-based; conditions: in vivo
Rattus norvegicus [27] = assay: Neuromuscular block activity in propofol-induced anesthetized Sprague-Dawley rat model assessed as inhibition of twitch by measuring twitch intensity of quadriceps muscle at 0.04 mg/kg, iv administered as bolus dose by TOF watch monitor analysis relative to control; format: functional
[28] = Hemolytic activity in human RBC assessed as hemolysis rate at 2048 microg/ml relative to control; format: toxicity, cell-based, Erythrocyte; conditions: red blood cells, at 2048 µg/mL, read-out: Activity
Rattus norvegicus [29] = assay: Neuromuscular block activity in propofol-induced anesthetized Sprague-Dawley rat model assessed as onset time required for twitch reduction at 0.2 mg/kg, iv; format: functional
Rattus norvegicus [30] = assay: Neuromuscular block activity in propofol-induced anesthetized Sprague-Dawley rat model assessed as inhibition of twitch by measuring twitch intensity of quadriceps muscle at 3 mg/kg, iv administered as bolus dose by TOF watch monitor analysis relative to control; format: functional
Rattus norvegicus [31] = assay: Neuromuscular block activity in propofol-induced anesthetized Sprague-Dawley rat model assessed as time duration of 0 to 25 percent recovery indices at 1.5 mg/kg, iv; format: functional
Rattus norvegicus [32] = assay: Neuromuscular block activity in propofol-induced anesthetized Sprague-Dawley rat model assessed as time duration of 0 to 25 percent recovery indices at 3 mg/kg, iv; format: functional
Rattus norvegicus [33] = assay: Neuromuscular block activity in propofol-induced anesthetized Sprague-Dawley rat model assessed as time duration of 0 to 25 percent recovery indices at 10 mg/kg, iv; format: functional
Rattus norvegicus [34] = assay: Reversal of IMC-14-induced neuromuscular block in Sprague-Dawley rat model assessed as recovery time at 10 mg/kg, iv measured at 5 hrs; format: functional
Rattus norvegicus [35] = assay: Reversal of IMC-14-induced neuromuscular block in Sprague-Dawley rat model assessed as recovery time at 20 mg/kg, iv measured at 19 sec; format: functional; conditions: 19 s
[36] = Toxicity in Sprague-Dawley rat at 0.2 mg/kg, iv measured for 5 hrs; format: organism-based; conditions: in vivo
Rattus norvegicus [37] = assay: Reversal of IMC-14-induced neuromuscular block in Sprague-Dawley rat model assessed as recovery time at 10 mg/kg, iv measured at 30 mins; format: functional; conditions: 0.5 h
Rattus norvegicus [38] = assay: Reversal of IMC-14-induced neuromuscular block in Sprague-Dawley rat model assessed as recovery time at 10 mg/kg, iv measured at 30 sec; format: functional; conditions: 0.5 min

Voltage-gated inwardly rectifying potassium channel KCNH2, sequence (Q12809 whole entry): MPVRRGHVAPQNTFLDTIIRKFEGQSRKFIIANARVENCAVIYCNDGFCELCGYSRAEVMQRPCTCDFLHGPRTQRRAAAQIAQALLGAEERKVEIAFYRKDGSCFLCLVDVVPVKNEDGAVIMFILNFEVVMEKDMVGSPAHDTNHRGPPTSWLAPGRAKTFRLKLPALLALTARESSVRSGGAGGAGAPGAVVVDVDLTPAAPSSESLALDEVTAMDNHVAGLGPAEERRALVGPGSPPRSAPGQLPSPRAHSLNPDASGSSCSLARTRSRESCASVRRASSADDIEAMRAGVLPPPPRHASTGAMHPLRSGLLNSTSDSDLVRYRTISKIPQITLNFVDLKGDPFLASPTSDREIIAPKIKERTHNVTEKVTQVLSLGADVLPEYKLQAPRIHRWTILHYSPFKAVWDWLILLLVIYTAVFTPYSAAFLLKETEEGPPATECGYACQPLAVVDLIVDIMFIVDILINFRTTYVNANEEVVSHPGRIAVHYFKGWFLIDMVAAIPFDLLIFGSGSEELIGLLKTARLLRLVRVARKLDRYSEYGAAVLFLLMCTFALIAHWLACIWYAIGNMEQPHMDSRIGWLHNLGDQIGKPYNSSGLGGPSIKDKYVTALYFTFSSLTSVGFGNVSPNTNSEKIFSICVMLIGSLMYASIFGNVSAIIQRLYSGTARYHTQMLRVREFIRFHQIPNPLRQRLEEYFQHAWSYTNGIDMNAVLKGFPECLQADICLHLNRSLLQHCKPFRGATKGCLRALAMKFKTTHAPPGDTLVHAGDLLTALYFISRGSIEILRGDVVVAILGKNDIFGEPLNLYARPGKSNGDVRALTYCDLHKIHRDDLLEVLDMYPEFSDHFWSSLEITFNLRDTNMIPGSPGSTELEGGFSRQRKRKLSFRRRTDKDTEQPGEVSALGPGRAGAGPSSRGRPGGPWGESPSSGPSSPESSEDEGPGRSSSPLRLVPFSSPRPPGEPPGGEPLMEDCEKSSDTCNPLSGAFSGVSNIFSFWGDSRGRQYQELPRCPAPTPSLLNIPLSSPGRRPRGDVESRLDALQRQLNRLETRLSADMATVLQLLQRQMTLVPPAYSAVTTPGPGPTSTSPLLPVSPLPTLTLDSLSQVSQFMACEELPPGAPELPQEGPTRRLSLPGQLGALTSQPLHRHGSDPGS

Question: With Cc1n2cc[n+]1Cc1ccc(cc1)Oc1ccc(cc1)C[n+]1ccn(c1C)CCCn1cc[n+](c1C)Cc1ccc(cc1)Oc1ccc(cc1)C[n+]1ccn(c1C)CCC2.[Cl-].[Cl-].[Cl-].[Cl-] as the molecule, how does the inhibition in vivo at 0.032 mg/kg (Rattus norvegicus [1]) read?
Answer: 90%

Question: What about the Time (Rattus norvegicus [2]) of the same molecule?
Answer: 9 s

Question: And the Activity [3]?
Answer: Non-toxic

Question: What about the ED50 (Rattus norvegicus [4]) of the same molecule?
Answer: 0.016 mg/kg

Question: What about the Activity (H9c2) of the same molecule?
Answer: Non-toxic

Question: What about the inhibition in vivo at 1.5 mg/kg (Rattus norvegicus [5]) of the same molecule?
Answer: 100%

Question: And the Activity [6]?
Answer: Non-toxic

Question: And the IC50 [7]?
Answer: > 40 µM

Question: What about the MTD [8] of the same molecule?
Answer: 550 mg/kg

Question: And the Time (Rattus norvegicus [9])?
Answer: 90 s

Question: What about the hemolysis at 2048 microg/ml [10] of the same molecule?
Answer: < 5%

Question: What about the Activity [11] of the same molecule?
Answer: Non-toxic

Question: And the Time (Rattus norvegicus [12])?
Answer: 7.6 min

Question: What about the Time (Rattus norvegicus [13]) of the same molecule?
Answer: 293 s

Question: And the Activity [14]?
Answer: Non-toxic

Question: And the Time (Rattus norvegicus [15])?
Answer: 13 s

Question: What about the Activity [16] of the same molecule?
Answer: Non-toxic

Question: What about the inhibition in vivo at 0.2 mg/kg (Rattus norvegicus [17]) of the same molecule?
Answer: 100%

Question: And the solubility [18]?
Answer: ≥ 50 mM

Question: What about the Activity [19] of the same molecule?
Answer: Non-toxic

Question: And the Time (Rattus norvegicus [20])?
Answer: 9 s

Question: And the Time (Rattus norvegicus [21])?
Answer: 217 min

Question: What about the Time (Rattus norvegicus [22]) of the same molecule?
Answer: 102 min

Question: And the Activity [23]?
Answer: Non-toxic

Question: And the inhibition in vivo at 10 mg/kg (Rattus norvegicus [24])?
Answer: 100%

Question: And the Time (Rattus norvegicus [25])?
Answer: 35 min

Question: And the Activity [26]?
Answer: Non-toxic

Question: What about the inhibition in vivo at 0.04 mg/kg (Rattus norvegicus [27]) of the same molecule?
Answer: 90%

Question: What about the hemolysis at 2048 microg/ml [28] of the same molecule?
Answer: < 5%

Question: What about the Time (Rattus norvegicus [29]) of the same molecule?
Answer: 20.5 s

Question: What about the inhibition in vivo at 3 mg/kg (Rattus norvegicus [30]) of the same molecule?
Answer: 100%

Question: And the Time (Rattus norvegicus [31])?
Answer: >300 min

Question: What about the Time (Rattus norvegicus [32]) of the same molecule?
Answer: >300 min

Question: What about the Time (Rattus norvegicus [33]) of the same molecule?
Answer: >300 min

Question: With C[C@]12N3Cc4c(c(OCCCC(=O)[O-])c5ccccc5c4OCCCC(=O)[O-])CN1C(=O)N1CN4C(=O)N5CN6C(=O)N7CN8C(=O)N9Cc%10c(c(OCCCC(=O)[O-])c%11ccccc%11c%10OCCCC(=O)[O-])CN%10C(=O)N(CN%11C(=O)N(CN%12C(=O)N(CN(C3=O)[C@]12C)[C@@H]4[C@H]%125)[C@@H]6[C@H]%117)[C@]8(C)[C@@]9%10C.[Na+].[Na+].[Na+].[Na+] as the molecule, how does the Time (Rattus norvegicus [34]) read?
Answer: 12 s

Question: What about the Time (Rattus norvegicus [35]) of the same molecule?
Answer: 30 s

Question: And the Activity [36]?
Answer: Non-toxic

Question: And the Time (Rattus norvegicus [37])?
Answer: 19 s

Question: And the Time (Rattus norvegicus [38])?
Answer: 54 s
